Columns and labels:
human cathepsin F = target: T1, human cathepsin F (Homo sapiens, UniProt Q9UBX1); experiment: Cathepsin F assay (hCat F); format: biochemical; conditions: Z-Phe-Arg-AMC substrate, pH 5.5, 15 min preincubation; read-out: hCat F (IP (nM))
T1 sequence (Q9UBX1 271-484): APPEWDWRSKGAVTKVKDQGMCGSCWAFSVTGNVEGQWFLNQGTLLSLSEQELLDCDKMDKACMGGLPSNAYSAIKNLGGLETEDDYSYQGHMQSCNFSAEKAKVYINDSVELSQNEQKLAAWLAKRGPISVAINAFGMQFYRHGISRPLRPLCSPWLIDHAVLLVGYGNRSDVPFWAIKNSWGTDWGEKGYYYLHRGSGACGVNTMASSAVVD
Procedure, shortened: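 Enzyme (10 nM) was preincubated 15 min at room temperature with compounds (1/3 DMSO dilution series, 500–0.025 μM) in 50 mM MES pH 5.5, 2.5 mM EDTA, 2.5 mM DTT, 10% DMSO. Z-Phe-Arg-AMC (8 μM) was added and AMC fluorescence (Ex 360/Em 460 nm) followed for 20 min. % inhibition was fitted to dose-response curves.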

human cathepsin K = human cathepsin K (UniProt P43236); experiment: Cathepsin K Assay (hrbCat K); format: biochemical; conditions: Z-Leu-Arg-AMC substrate, pH 5.5, 15 min preincubation; read-out: hrbCat K (IP (nM))
Procedure, shortened: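 Human cathepsin K (0.4 nM) was preincubated 15 min at room temperature with compound in 50 mM MES pH 5.5, 2.5 mM EDTA, 2.5 mM DTT and 10% DMSO. Inhibition was fitted to a dose-response model.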

IC50 (human cathepsin F) [nM] | IC50 (human cathepsin K) [nM] | Compound
8430 | 5.3 | Cc1nc([C@@H]2CC[C@H](F)C[C@H]2C(=O)NC2(C#N)CC2)c(-c2ccc(N3CCC(S(C)(=O)=O)CC3)cc2)s1 [Example 243, (1R,2R,5S)-N-(1-cyanocyclopropyl)-5-fluoro-2-(2-methyl-5-(4-(4-(methylsulfonyl)piperidin-1-yl)phenyl)thiazol-4-yl)cyclohexane-carboxamide]
7740 | 4.7 | Cc1nc([C@@H]2CC[C@H](F)C[C@H]2C(=O)N[C@@H](C)C#N)c(-c2ccc(N3CCC(S(C)(=O)=O)CC3)cc2)s1 [Example 244, (1R,2R,5S)-N-((S)-1-cyanoethyl)-5-fluoro-2-(2-methyl-5-(4-(4-(methylsulfonyl)piperidin-1-yl)phenyl)thiazol-4-yl)cyclohexane-carboxamide]
≥ 10000 | 6600 | Cc1nc([C@H]2CCCC[C@@H]2C(=O)NCC#N)c(-c2ccc(C(=O)N3CCOCC3)cc2)s1 [Example 248, (1S,2S)-N-(cyanomethyl)-2-(2-methyl-5-(4-(morpholine-4-carbonyl)phenyl)thiazol-4-yl)cyclohexanecarboxamide]
4860 | 1.8 | N#CC1(NC(=O)[C@@H]2C[C@@H](F)CC[C@H]2c2nc(C(F)F)sc2-c2ccc(N3CCS(=O)(=O)CC3)cc2)CC1 [Example 2219, (1R,2R,5S)-N-(1-cyanocyclopropyl)-2-(2-(difluoromethyl)-5-(4-(1,1-dioxidothiomorpho-lino)phenyl)thiazol-4-yl)-5-fluorocyclohexane-carboxamide]

Reference: patent US9573913B2, “Cathepsin cysteine protease inhibitors” (Merck Sharp & Dohme Corp., priority 2013, dated 2017)
